Source: ChEMBL document CHEMBL1201862, “PubChem BioAssay data set” (2004)
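Five concentrations, 48 hours, 96-well plates. At the GI50, growth is halved.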 Active and inactive are the calls of the source. No stated cut-off is given here; in the data, active = GI50 up to about 1.1 µM and inactive = higher.

Key:
Assay in all cases: NCI anticancer screen, dose series, 48 h
MOLT-4 = test system: MOLT-4
MDA-MB-435 = test system: MDA-MB-435
SK-MEL-28 = test system: SK-MEL-28
SK-MEL-5 = test system: SK-MEL-5
HCT-116 = test system: HCT-116
OVCAR-4 = test system: OVCAR-4
UACC-62 = test system: UACC-62
DU-145 = test system: DU-145
SNB-19 = test system: SNB-19
UO-31 = test system: UO-31
M14 = test system: M14
A549 = test system: A549
IGROV-1 = test system: IGROV-1
Hs-578T = test system: Hs-578T
NCI/ADR-RES = test system: NCI/ADR-RES
SF-295 = test system: SF-295
NCI-H23 = test system: NCI-H23
COLO 205 = test system: COLO 205
MDA-MB-231 = test system: MDA-MB-231

| Structure (SMILES) | GI50 (MOLT-4) | GI50 (MDA-MB-435) | GI50 (SK-MEL-28) | GI50 (SK-MEL-5) | GI50 (HCT-116) | GI50 (OVCAR-4) | GI50 (UACC-62) | GI50 (DU-145) | GI50 (SNB-19) | GI50 (UO-31) | GI50 (M14) | GI50 (A549) | GI50 (IGROV-1) | GI50 (Hs-578T) | GI50 (NCI/ADR-RES) | GI50 (SF-295) | GI50 (NCI-H23) | GI50 (COLO 205) | GI50 (MDA-MB-231) |
| --- | --- | --- | --- | --- | --- | --- | --- | --- | --- | --- | --- | --- | --- | --- | --- | --- | --- | --- | --- |
| CCC1=NC(N/N=C/c2ccco2)=N/C1=C\c1ccccc1O | 25.2 µM (inactive) | 29.5 µM (inactive) | 38.3 µM (inactive) | 27.2 µM (inactive) | 23.7 µM (inactive) | 2.86 µM (inactive) | 22.3 µM (inactive) | 55.6 µM (inactive) | 47.9 µM (inactive) | 11.6 µM (inactive) | 35.2 µM (inactive) | 41.1 µM (inactive) | 26.4 µM (inactive) | 30.6 µM (inactive) | 24.5 µM (inactive) | 44.2 µM (inactive) | 28.8 µM (inactive) | 44.3 µM (inactive) | > 100 µM (inactive) |
| C[C@H](NC1=C(Cl)C(=O)c2c(O)ccc(O)c2C1=O)C(=O)Nc1ccc([N+](=O)[O-])cc1 | 10 µM (inactive) | 1.57 µM (inactive) | 2.03 µM (inactive) | 1.76 µM (inactive) | 1.41 µM (inactive) | 1.73 µM (inactive) | 2.4 µM (inactive) | 1.82 µM (inactive) | 3.06 µM (inactive) |  | 1.25 µM (inactive) | 1.71 µM (inactive) | 2.5 µM (inactive) | 4.57 µM (inactive) | 1.81 µM (inactive) | 1.89 µM (inactive) | 2.02 µM (inactive) | 1.59 µM (inactive) | 1.91 µM (inactive) |
| c1ccc2c(c1)cc1n2CCc2c-1[nH]c1ccccc21 | > 10 µM (inactive) | > 10 µM (inactive) | > 10 µM (inactive) | > 10 µM (inactive) | > 10 µM (inactive) | > 10 µM (inactive) | > 10 µM (inactive) | > 10 µM (inactive) | > 10 µM (inactive) | > 10 µM (inactive) | > 10 µM (inactive) | > 10 µM (inactive) | > 10 µM (inactive) | > 10 µM (inactive) | > 10 µM (inactive) | > 10 µM (inactive) | > 10 µM (inactive) | > 10 µM (inactive) | > 10 µM (inactive) |
| COC(=O)C1Cc2c([nH]c3ccccc23)-c2[nH]c3ccccc3c2CC(NC(C)=O)C(=O)NCC(=O)N1 (centres undefined) | > 100 µM (inactive) | > 100 µM (inactive) | > 100 µM (inactive) | > 100 µM (inactive) | > 100 µM (inactive) | > 100 µM (inactive) | > 100 µM (inactive) | > 100 µM (inactive) | > 100 µM (inactive) | > 100 µM (inactive) |  | > 100 µM (inactive) | 0.914 µM (active) | > 100 µM (inactive) | > 100 µM (inactive) | > 100 µM (inactive) | > 100 µM (inactive) | > 100 µM (inactive) | > 100 µM (inactive) |
| Cc1ccc(O)c(C(=O)/C=C/c2ccccc2)c1 | 9.93 µM (inactive) | > 100 µM (inactive) | > 100 µM (inactive) | > 100 µM (inactive) | > 100 µM (inactive) | 78.9 µM (inactive) | > 100 µM (inactive) | > 100 µM (inactive) | > 100 µM (inactive) | > 100 µM (inactive) | > 100 µM (inactive) | > 100 µM (inactive) | > 100 µM (inactive) | 78 µM (inactive) | 53.5 µM (inactive) | > 100 µM (inactive) | > 100 µM (inactive) | > 100 µM (inactive) | > 100 µM (inactive) |
| CCOP(=O)(OCC)/C(C#N)=C/c1ccc(-c2ccc(F)cc2F)o1 | 10.6 µM (inactive) | 12.6 µM (inactive) | 14.8 µM (inactive) | 10.6 µM (inactive) | 17.4 µM (inactive) | 18.2 µM (inactive) | 11.3 µM (inactive) | 27.2 µM (inactive) | 16.9 µM (inactive) | 13.1 µM (inactive) | 17.2 µM (inactive) | 15.3 µM (inactive) | 13.9 µM (inactive) | > 10 µM (inactive) | 22.1 µM (inactive) | 16.4 µM (inactive) | 14.5 µM (inactive) | 14.9 µM (inactive) | 16.7 µM (inactive) |
| CCCN1C(=O)CC(C)N(Cc2ccccc2Cl)C1=S (centres undefined) | 28.2 µM (inactive) | 23.7 µM (inactive) | 22.9 µM (inactive) | 17.8 µM (inactive) | 24.7 µM (inactive) | 43.7 µM (inactive) | 19.1 µM (inactive) | 26.4 µM (inactive) | 46.1 µM (inactive) |  | 25.7 µM (inactive) | 35.3 µM (inactive) | 33.4 µM (inactive) | 30.8 µM (inactive) | 21.2 µM (inactive) | 31.9 µM (inactive) | 23.5 µM (inactive) | 16.9 µM (inactive) | 28.7 µM (inactive) |
| CC(=O)Oc1c(-c2ccccc2)sc2ccccc12 | 14.7 µM (inactive) | 25 µM (inactive) | 21.3 µM (inactive) | 18.5 µM (inactive) | 13.4 µM (inactive) | 23 µM (inactive) | 15.7 µM (inactive) | 14.1 µM (inactive) | 34.4 µM (inactive) | 16.8 µM (inactive) | > 10 µM (inactive) | 20.6 µM (inactive) | 15.3 µM (inactive) | 19.6 µM (inactive) | 18.2 µM (inactive) | 18.6 µM (inactive) | 15.1 µM (inactive) | 15.6 µM (inactive) | 14 µM (inactive) |
| CC1(C)CC(=O)c2c([nH]c(=S)c(C#N)c2-c2ccc(Br)cc2)C1 |  | 51.5 µM (inactive) | 44.1 µM (inactive) | 46.9 µM (inactive) | 58.2 µM (inactive) | 34.4 µM (inactive) | 32.7 µM (inactive) | 61 µM (inactive) | 45.5 µM (inactive) | 45.9 µM (inactive) | 43 µM (inactive) | 56.2 µM (inactive) | 62.5 µM (inactive) | 29 µM (inactive) | > 100 µM (inactive) | 35.7 µM (inactive) | 51.1 µM (inactive) | > 10 µM (inactive) | 92.5 µM (inactive) |
| O=C1NC(=S)NC1C(Cc1ccccc1)c1ccco1 (centres undefined) | 81.7 µM (inactive) | > 100 µM (inactive) | > 100 µM (inactive) | > 100 µM (inactive) | > 100 µM (inactive) | > 100 µM (inactive) |  | > 100 µM (inactive) | > 100 µM (inactive) | > 100 µM (inactive) | > 100 µM (inactive) | > 100 µM (inactive) | > 100 µM (inactive) | > 100 µM (inactive) | > 100 µM (inactive) | > 100 µM (inactive) | > 100 µM (inactive) | > 100 µM (inactive) | > 100 µM (inactive) |
| C[C@]12CCC(=O)C=C1CC[C@@H]1[C@@H]2CC[C@]2(C)C(=O)/C(=C/c3ccncc3)C[C@@H]12 | 16.4 µM (inactive) | 17.1 µM (inactive) | 20 µM (inactive) | 8.97 µM (inactive) | 10.6 µM (inactive) | 17.2 µM (inactive) | 12.7 µM (inactive) | 14.5 µM (inactive) | 13.2 µM (inactive) | 12.6 µM (inactive) | 14.6 µM (inactive) | 16.4 µM (inactive) | 21.2 µM (inactive) | 29.8 µM (inactive) | 26.2 µM (inactive) | 15.3 µM (inactive) | 18.3 µM (inactive) | 13.2 µM (inactive) | 15.2 µM (inactive) |
| Cc1oc2nc(N(C)C)n3nnnc3c2c1C | > 100 µM (inactive) | > 100 µM (inactive) | > 100 µM (inactive) | > 100 µM (inactive) | > 100 µM (inactive) | 48 µM (inactive) | 49.9 µM (inactive) | > 100 µM (inactive) | > 100 µM (inactive) | 30.3 µM (inactive) | > 100 µM (inactive) | > 100 µM (inactive) | > 100 µM (inactive) | > 100 µM (inactive) | > 100 µM (inactive) | > 100 µM (inactive) | > 100 µM (inactive) | > 100 µM (inactive) | > 100 µM (inactive) |
| Cc1ccc(OCCn2cc(Nc3ccccc3)c(=O)[nH]c2=O)cc1 | > 100 µM (inactive) | > 100 µM (inactive) | > 100 µM (inactive) | > 100 µM (inactive) | > 100 µM (inactive) | > 100 µM (inactive) | > 100 µM (inactive) | > 100 µM (inactive) | > 100 µM (inactive) | > 100 µM (inactive) | > 100 µM (inactive) | > 100 µM (inactive) | > 100 µM (inactive) | 22.1 µM (inactive) | > 100 µM (inactive) | > 100 µM (inactive) | > 100 µM (inactive) | > 100 µM (inactive) | > 100 µM (inactive) |
| c1ccc([B-]2(c3ccccc3)NCCCO2)cc1 | 32.7 µM (inactive) | 46.3 µM (inactive) | 56.8 µM (inactive) | 24.8 µM (inactive) | 35.8 µM (inactive) | 67.9 µM (inactive) | 45.4 µM (inactive) | 72.3 µM (inactive) | > 100 µM (inactive) | 20 µM (inactive) | 31.3 µM (inactive) | 58.6 µM (inactive) | 55 µM (inactive) | 32.1 µM (inactive) | 64.1 µM (inactive) | 51.3 µM (inactive) | 47 µM (inactive) | 24.9 µM (inactive) | 42.5 µM (inactive) |
| Cc1cccc(Nc2cc(Cl)nc(SCC(=O)O)n2)c1C [PIRINIXIC ACID] | 63.1 µM (inactive) | > 100 µM (inactive) | > 100 µM (inactive) | > 100 µM (inactive) | > 100 µM (inactive) | > 100 µM (inactive) | > 100 µM (inactive) | > 100 µM (inactive) | > 100 µM (inactive) |  | > 100 µM (inactive) | > 100 µM (inactive) | > 100 µM (inactive) | > 100 µM (inactive) | > 100 µM (inactive) | > 100 µM (inactive) | > 100 µM (inactive) | > 100 µM (inactive) | > 100 µM (inactive) |
